Data on 21 compounds can be found in patent US10590140B2, “Tetrahydropyrimidodiazepine and dihydropyridodiazepine compounds for treating pain and pain related conditions” (ESTEVE PHARMACEUTICALS, S.A., priority 2016, dated 2020).

The target in this test is human α2δ-1 subunit of Cav2.2 calcium channel (Homo sapiens (Human), UniProt P54289). Put plainly: Binding assay to human α2δ-1 subunit of Cav2.2 calcium channel ([3H]-Gabapentin). As for the experimental part:
Binding Assay to Human α2δ-1 Subunit of Cav2.2 Calcium Channel.
NSB (non specific binding) was measured by adding 10 μM pregabalin. After 60 min incubation at 27° C., binding reaction was terminated by filtering through Multiscreen GF/C (Millipore) presoaked in 0.5% polyethyleneimine in Vacuum Manifold Station, followed by 3 washes with ice-cold filtration buffer containing 50 mM Tris-HCl, pH 7.4.
Filter plates were dried at 60° C. for 1 hour and 30 μl of scintillation cocktail were added to each well before radioactivity reading.

Setting [1] is: binding to α2δ-1, [3H]-Gabapentin, read-out: Ki (nM) α2δ-1.

Where two headings read alike, the source gives them in different places. A value given as a limit tells only on which side of the number the result lay.

human α2δ-1 subunit of Cav2.2 calcium channel, sequence (P54289 25-1103): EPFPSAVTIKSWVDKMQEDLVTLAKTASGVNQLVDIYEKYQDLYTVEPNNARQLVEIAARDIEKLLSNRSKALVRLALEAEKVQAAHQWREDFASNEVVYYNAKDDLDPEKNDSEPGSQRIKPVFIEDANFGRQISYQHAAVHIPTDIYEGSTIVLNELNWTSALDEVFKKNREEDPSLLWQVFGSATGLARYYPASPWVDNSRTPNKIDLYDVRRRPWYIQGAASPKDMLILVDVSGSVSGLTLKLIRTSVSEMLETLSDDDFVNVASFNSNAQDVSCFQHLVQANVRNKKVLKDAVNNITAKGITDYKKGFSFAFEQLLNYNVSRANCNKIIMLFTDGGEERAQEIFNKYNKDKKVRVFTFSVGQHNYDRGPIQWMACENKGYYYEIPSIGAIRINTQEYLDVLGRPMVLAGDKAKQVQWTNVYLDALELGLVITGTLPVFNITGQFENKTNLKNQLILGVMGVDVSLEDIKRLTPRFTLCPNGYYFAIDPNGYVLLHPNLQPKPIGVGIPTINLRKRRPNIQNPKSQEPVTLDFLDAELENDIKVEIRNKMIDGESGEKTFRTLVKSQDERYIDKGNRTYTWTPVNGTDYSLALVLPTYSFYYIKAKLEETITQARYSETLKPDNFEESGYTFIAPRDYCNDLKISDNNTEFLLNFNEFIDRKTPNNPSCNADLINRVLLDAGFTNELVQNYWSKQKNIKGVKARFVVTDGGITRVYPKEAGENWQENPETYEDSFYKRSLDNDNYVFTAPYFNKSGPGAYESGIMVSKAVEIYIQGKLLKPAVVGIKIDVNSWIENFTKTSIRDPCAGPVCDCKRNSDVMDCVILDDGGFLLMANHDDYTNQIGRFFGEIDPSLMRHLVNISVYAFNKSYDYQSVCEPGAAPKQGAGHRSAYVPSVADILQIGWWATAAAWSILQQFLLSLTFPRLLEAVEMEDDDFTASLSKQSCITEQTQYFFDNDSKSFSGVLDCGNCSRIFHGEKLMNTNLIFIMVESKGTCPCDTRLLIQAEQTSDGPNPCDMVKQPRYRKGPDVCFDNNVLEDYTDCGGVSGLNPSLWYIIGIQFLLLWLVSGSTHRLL

The Ki is the dissociation constant of the complex between target and ligand, obtained from inhibition or displacement. With `CCNc1ncc2c(n1)N(C)CCN(c1cccc(O)c1)C2=O` [Example 177, 2-(ethylamino)-6-(3-hydroxyphenyl)-9-methyl-6,7,8,9-tetrahydro-5H-pyrimido[4,5-e][1,4]diazepin-5-one], the Ki under setting [1] was greater than 3000 nM.

On to `CCNc1ncc2c(n1)N(C)CCN(c1cccc(OC(CCNCCF)c3cccs3)c1)C2=O` (stereo not shown) [Example 220, 2-(ethylamino)-6-(3-(3-((2-fluoroethyl)amino)-1-(thiophen-2-yl)propoxy)phenyl)-9-methyl-6,7,8,9-tetrahydro-5H-pyrimido[4,5-e][1,4]diazepin-5-one], for which the Ki under setting [1] fell in the range of 500 to 3000 nM.

Turning to `CN(CC[C@@H](OCc1cccc(N2CCN(C)c3nc(N(C)C)ncc3C2=O)c1)c1ccccc1)C(=O)OC(C)(C)C` [Example 131, tert-butyl (R)-(3-((3-(2-(dimethylamino)-9-methyl-5-oxo-5,7,8,9-tetrahydro-6H-pyrimido[4,5-e][1,4]diazepin-6-yl)benzyl)oxy)-3-phenylpropyl)(methyl) carbamate], under setting [1], the Ki is greater than 3000 nM. The same measure, in the same setting: next, `CNCCC(C)OCc1cccc(N2CCN(C)c3nc(SC)ncc3C2=O)c1` (stereo not shown) [Example 192, 9-methyl-6-(3-(((4-(methylamino)butan-2-yl)oxy)methyl)phenyl)-2-(methylthio)-6,7,8,9-tetrahydro-5H-pyrimido[4,5-e][1,4]diazepin-5-one]: greater than 3000 nM; `CCNc1cc2c(cn1)C(=O)N(c1cccc(OC(CCN(C)C(=O)OCC[Si](C)(C)C)c3cccs3)c1)CCN2C` (stereo not shown) [Example 58, 2-(trimethyl-silyl)ethyl (3-(3-(8-(ethylamino)-1-methyl-5-oxo-1,2,3,5-tetrahydro-4H-pyrido[4,3-e] [1,4]diazepin-4-yl)phenoxy)-3-(thiophen-2-yl)propyl)(methyl) carbamate]: greater than 3000 nM.

With `CCNc1ncc2c(n1)N(C)CCN(c1cccc(CO[C@@H](CCNC)c3cccs3)c1)C2=O` (stereo in doubt) [Example 213], the inhibition constant Ki fell in the range of 500 to 3000 nM. In addition, the inhibition constant Ki (read-out: Ki (nM) α2δ-1, Table 2, dual compounds, [3H]-Gabapentin binding) fell in the range of 500 to 3000 nM. For `CSc1ncc2c(n1)N(C)CCN(c1cccc(COCC(c3ccccc3)N(C)C(=O)OC(C)(C)C)c1)C2=O` (stereo not shown) [Example 18, tert-butyl methyl(2-((3-(9-methyl-2-(methylthio)-5-oxo-5,7,8,9-tetrahydro-6H-pyrimido[4,5-e][1,4]diazepin-6-yl)benzyl)oxy)-1-phenylethyl) carbamate], under setting [1], the inhibition constant Ki is greater than 3000 nM.

For the compound `COc1cccc(N2CCN(C)c3nc(SC)ncc3C2=O)c1` [Example 32, 6-(3-methoxyphenyl)-9-methyl-2-(methylthio)-6,7,8,9-tetrahydro-5H-pyrimido[4,5-e][1,4]diazepin-5-one], under setting [1], the inhibition constant (Ki) is greater than 3000 nM. Regarding `CNCCC(Oc1ccc(CN2CCN(C)c3nc(OC)ncc3C2=O)cc1)c1cc(C)cs1` (stereo not shown) [Example 396, 2-methoxy-9-methyl-6-(4-(3-(methylamino)-1-(4-methylthiophen-2-yl)propoxy)benzyl)-6,7,8,9-tetrahydro-5H-pyrimido[4,5-e][1,4]diazepin-5-one], the Ki under setting [1] was in the range of 100 to 500 nM. For the compound `CCNc1ncc2c(n1)N(C)CCN(Cc1cccc(OC(CCNC)c3ccccc3)c1)C2=O` (stereo not shown) [Example 407, 2-(ethylamino)-9-methyl-6-(3-(3-(methylamino)-1-phenylpropoxy)benzyl)-6,7,8,9-tetrahydro-5H-pyrimido[4,5-e][1,4]diazepin-5-one], the inhibition constant (Ki) under setting [1] lay within 100 to 500 nM. On to `CNCC(OCc1ccccc1CN1CCN(C)c2nc(C)ncc2C1=O)c1ccccc1` (stereo not shown) [Example 424, 2,9-dimethyl-6-(2-((2-(methylamino)-1-phenylethoxy)methyl)benzyl)-6,7,8,9-tetrahydro-5H-pyrimido[4,5-e][1,4]diazepin-5-one], for which the Ki under setting [1] was greater than 3000 nM. Turning to `CSc1ncc2c(n1)N(C)CCN(c1cccc(COC(CCN(C)C(=O)OC(C)(C)C)c3cccs3)c1)C2=O` (stereo not shown) [Example 15, tert-butyl methyl(3-((3-(9-methyl-2-(methylthio)-5-oxo-5,7,8,9-tetrahydro-6H-pyrimido[4,5-e][1,4]diazepin-6-yl)benzyl)oxy)-3-(thiophen-2-yl)propyl) carbamate], the Ki under setting [1] is greater than 3000 nM. In the case of `CNCCC(OCc1cccc(N2CCN(C)c3nc(SC)ncc3C2=O)c1)C(C)C` (stereo not shown) [Example 190, 9-methyl-6-(3-(((4-methyl-1-(methylamino)pentan-3-yl)oxy)methyl)phenyl)-2-(methylthio)-6,7,8,9-tetrahydro-5H-pyrimido[4,5-e][1,4]diazepin-5-one], the inhibition constant (Ki) under setting [1] was greater than 3000 nM. On the same count and under the same terms, with `CNCCC(Oc1ccc(CN2CCN(C)c3nc(OC)ncc3C2=O)cc1)c1ccccc1F` (stereo not shown) [Example 376, 6-(4-(1-(2-fluorophenyl)-3-(methylamino)propoxy)benzyl)-2-methoxy-9-methyl-6,7,8,9-tetrahydro-5H-pyrimido[4,5-e][1,4]diazepin-5-one] the figure was 500 to 3000 nM; with `CCOC(OCC)c1cn(-c2cccc(N3CCN(C)c4nc(SC)ncc4C3=O)c2)nn1` [Example 42, 6-(3-(4-(diethoxymethyl)-1H-1,2,3-triazol-1-yl)phenyl)-9-methyl-2-(methylthio)-6,7,8,9-tetrahydro-5H-pyrimido[4,5-e][1,4]diazepin-5-one], greater than 3000 nM.

`CN(CCC(Oc1cccc(N2CCN(C)c3cc(Cl)ncc3C2=O)c1)c1cccs1)C(=O)OCC[Si](C)(C)C` (stereo not shown) [Example 297, 2-(trimethylsilyl)ethyl (3-(3-(8-chloro-1-methyl-5-oxo-1,2,3,5-tetrahydro-4H-pyrido[4,3-e][1,4]diazepin-4-yl)phenoxy)-3-(thiophen-2-yl)propyl)(methyl) carbamate]: the Ki under setting [1] was greater than 3000 nM. Still for that read-out and setting: with `CSc1ncc2c(n1)N(C)CCN(Cc1cccc(OC(CN(C)C(=O)OC(C)(C)C)c3ccccc3)c1)C2=O` (stereo not shown) [Example 62, tert-Butyl methyl(2-(3-((9-methyl-2-(methylthio)-5-oxo-5,7,8,9-tetrahydro-6H-pyrimido[4,5-e][1,4]diazepin-6-yl)methyl)phenoxy)-2-phenylethyl) carbamate] the figure was greater than 3000 nM; with `CCNc1ncc2c(n1)N(C)CCN(c1cccc(OC(CNC(=O)OC(C)(C)C)c3ccccc3)c1)C2=O` (stereo not shown) [Example 73, tert-butyl (2-(3-(2-(ethylamino)-9-methyl-5-oxo-5,7,8,9-tetrahydro-6H-pyrimido[4,5-e][1,4]diazepin-6-yl)phenoxy)-2-phenylethyl)carbamate], greater than 3000 nM. With `CSc1ncc2c(n1)N(C)CCN(c1cccc(OCCCN(C)C(=O)OC(C)(C)C)c1)C2=O` [Example 20, tert-butyl methyl(3-(3-(9-methyl-2-(methylthio)-5-oxo-5,7,8,9-tetrahydro-6H-pyrimido[4,5-e][1,4]diazepin-6-yl)phenoxy)propyl) carbamate], the Ki under setting [1] was greater than 3000 nM. With `CCNc1ncc2c(n1)N(C)CCN(c1cccc(C3CCN(C)CC3)c1)C2=O` [Example 260, 2-(ethylamino)-9-methyl-6-(3-(1-methylpiperidin-4-yl)phenyl)-6,7,8,9-tetrahydro-5H-pyrimido[4,5-e][1,4]diazepin-5-one], under setting [1], the Ki lay within 100 to 500 nM. With `CN(CCC(OCc1cccc(N2CCN(C)c3cc(Cl)ncc3C2=O)c1)c1ccccc1)C(=O)OC(C)(C)C` (stereo not shown) [Example 300, tert-butyl (3-((3-(8-chloro-1-methyl-5-oxo-1,2,3,5-tetrahydro-4H-pyrido[4,3-e][1,4]diazepin-4-yl)benzyl)oxy)-3-phenylpropyl)(methyl) carbamate], the Ki under setting [1] is greater than 3000 nM.
